From US11738008B2, “N-methyl-D-aspartic acid receptor modulators” (Emory University, priority 2018, dated 2023)
Converted amounts (≈) assume the structure as drawn. Like-named read-outs stand apart in the source and are kept apart here.

Tests used:
rat GluN1/GluN2C [1] = biological target: rat GluN1/GluN2C (Rattus norvegicus, UniProt Q00961); test: Two-electrode voltage clamp recordings in Xenopus laevis oocytes, potentiation of GluN1/GluN2C; assay type: cell-based; details: for GluN2C potentiation (NE class): 30 μM; for GluN2C Max %: maximal response, current without potentiator = 100%
Method: (§1) Xenopus laevis oocytes were purchased unfertilized from Ecocyte (Austin, Tex.). The oocytes were injected with mRNA to express recombinant rat GluN1/GluN2A, GluN1/GluN2B, GluN1/GluN2C, and GluN1/GluN2D and two-electrode voltage clamp (TEVC) recordings were performed. Drs. S. Heinemann (Salk Institute), S. Nakanishi (Kyoto University), and P. Seeburg (University of Heidelberg) provided the cDNAs for rat GluN1-1a (GenBank accession numbers U11418 and U08261, referred to as GluN1 henceforth), GluN2A (D13211), GluN2B (U11419), GluN2C (M91563), and GluN2D (D13213). GluN2C and GluN2D were altered according to literature precedent. […] To prevent the current increase typically seen during experiments with oocytes expressing GluN1/GluN2A receptors, the oocytes were either injected with 20 nL of 100 mM K-BAPTA (potassium 1,2-bis(o-aminophenoxy)ethane-N,N,N,N-tetraacetic acid) or pretreated with 50 μM BAPTA-AM (1,2-bis(o-aminophenoxy)ethane-N,N,N,N-tetraacetic acid tetraacetoxymethyl ester) for 10 minutes.

[2] = test system: fear and extinction learning; details: mice; Ogden et al. 2014; cited from earlier work
[3] = test system: GluN2A/B, AMPAR, or kainate receptors; details: previously described; cited from earlier work
[4] = test system: schizophrenia-like symptoms; details: mice; Suryavanshi et al. 2014; cited from earlier work
rat GluN1/GluN2D [5] = biological target: rat GluN1/GluN2D (Rattus norvegicus, UniProt Q62645); test: Two-electrode voltage clamp recordings in Xenopus laevis oocytes, potentiation of GluN1/GluN2D; assay type: cell-based; details: for GluN2D potentiation (NE class): 30 μM; for GluN2D Max %: maximal response, current without potentiator = 100%
Method: as §1

GluN2C/D = details: Mullasseril et al. 2010; read-out: potency at GluN2C/D; cited from earlier work
rat GluN1/GluN2C [6] = biological target: rat GluN1/GluN2C (Rattus norvegicus, UniProt P35439+Q00961); test: Two-electrode voltage clamp recordings in Xenopus laevis oocytes, potentiation of GluN1/GluN2C; assay type: cell-based
Method: as §1

rat GluN1/GluN2D [7] = biological target: rat GluN1/GluN2D (Rattus norvegicus, UniProt P35439+Q62645); test: Two-electrode voltage clamp recordings in Xenopus laevis oocytes, potentiation of GluN1/GluN2D; assay type: cell-based
Method: as §1

[8] = nephelometer, oocyte recording solution

Sequence of rat GluN1/GluN2D (Rattus norvegicus, UniProt P35439+Q62645) (Q62645 28-1323, other chains not shown): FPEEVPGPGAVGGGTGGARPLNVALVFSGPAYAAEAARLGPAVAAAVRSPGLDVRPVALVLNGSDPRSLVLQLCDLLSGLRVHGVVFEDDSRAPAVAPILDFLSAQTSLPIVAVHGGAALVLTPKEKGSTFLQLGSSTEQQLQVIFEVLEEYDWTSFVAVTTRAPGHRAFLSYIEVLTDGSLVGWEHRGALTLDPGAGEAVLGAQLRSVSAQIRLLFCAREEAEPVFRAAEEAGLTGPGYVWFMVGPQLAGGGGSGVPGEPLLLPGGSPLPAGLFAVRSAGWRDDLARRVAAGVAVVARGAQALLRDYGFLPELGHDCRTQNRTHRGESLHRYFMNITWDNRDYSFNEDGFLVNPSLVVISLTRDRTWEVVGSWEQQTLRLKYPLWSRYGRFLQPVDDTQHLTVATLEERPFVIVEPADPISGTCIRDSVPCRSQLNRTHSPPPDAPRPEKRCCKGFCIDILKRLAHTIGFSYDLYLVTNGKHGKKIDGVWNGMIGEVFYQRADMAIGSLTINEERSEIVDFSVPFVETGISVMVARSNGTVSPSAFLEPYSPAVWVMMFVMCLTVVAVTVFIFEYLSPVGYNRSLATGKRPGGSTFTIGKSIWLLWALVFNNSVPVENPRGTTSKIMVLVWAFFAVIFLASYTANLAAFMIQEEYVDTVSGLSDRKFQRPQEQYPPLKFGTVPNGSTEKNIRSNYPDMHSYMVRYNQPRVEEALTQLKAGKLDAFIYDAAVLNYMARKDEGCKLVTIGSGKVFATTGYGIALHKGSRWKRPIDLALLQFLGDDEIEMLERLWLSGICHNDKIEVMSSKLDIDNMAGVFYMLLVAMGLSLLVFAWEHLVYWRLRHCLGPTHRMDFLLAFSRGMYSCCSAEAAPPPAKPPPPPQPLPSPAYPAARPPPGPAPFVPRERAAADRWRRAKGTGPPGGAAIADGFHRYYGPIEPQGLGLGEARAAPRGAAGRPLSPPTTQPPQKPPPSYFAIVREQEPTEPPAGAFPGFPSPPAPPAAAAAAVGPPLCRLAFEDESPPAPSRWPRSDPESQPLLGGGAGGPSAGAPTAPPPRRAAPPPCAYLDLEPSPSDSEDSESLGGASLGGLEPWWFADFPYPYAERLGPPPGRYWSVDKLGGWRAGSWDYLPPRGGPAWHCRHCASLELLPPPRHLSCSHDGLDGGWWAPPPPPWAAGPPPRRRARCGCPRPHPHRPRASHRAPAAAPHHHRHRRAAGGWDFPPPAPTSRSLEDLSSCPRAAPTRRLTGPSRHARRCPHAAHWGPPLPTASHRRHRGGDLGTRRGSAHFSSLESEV
Sequence of rat GluN1/GluN2D (Rattus norvegicus, UniProt Q62645) (Q62645 28-1323, other chains not shown): as above
Sequence of rat GluN1/GluN2C (Rattus norvegicus, UniProt Q00961) (Q00961 20-1237, other chains not shown): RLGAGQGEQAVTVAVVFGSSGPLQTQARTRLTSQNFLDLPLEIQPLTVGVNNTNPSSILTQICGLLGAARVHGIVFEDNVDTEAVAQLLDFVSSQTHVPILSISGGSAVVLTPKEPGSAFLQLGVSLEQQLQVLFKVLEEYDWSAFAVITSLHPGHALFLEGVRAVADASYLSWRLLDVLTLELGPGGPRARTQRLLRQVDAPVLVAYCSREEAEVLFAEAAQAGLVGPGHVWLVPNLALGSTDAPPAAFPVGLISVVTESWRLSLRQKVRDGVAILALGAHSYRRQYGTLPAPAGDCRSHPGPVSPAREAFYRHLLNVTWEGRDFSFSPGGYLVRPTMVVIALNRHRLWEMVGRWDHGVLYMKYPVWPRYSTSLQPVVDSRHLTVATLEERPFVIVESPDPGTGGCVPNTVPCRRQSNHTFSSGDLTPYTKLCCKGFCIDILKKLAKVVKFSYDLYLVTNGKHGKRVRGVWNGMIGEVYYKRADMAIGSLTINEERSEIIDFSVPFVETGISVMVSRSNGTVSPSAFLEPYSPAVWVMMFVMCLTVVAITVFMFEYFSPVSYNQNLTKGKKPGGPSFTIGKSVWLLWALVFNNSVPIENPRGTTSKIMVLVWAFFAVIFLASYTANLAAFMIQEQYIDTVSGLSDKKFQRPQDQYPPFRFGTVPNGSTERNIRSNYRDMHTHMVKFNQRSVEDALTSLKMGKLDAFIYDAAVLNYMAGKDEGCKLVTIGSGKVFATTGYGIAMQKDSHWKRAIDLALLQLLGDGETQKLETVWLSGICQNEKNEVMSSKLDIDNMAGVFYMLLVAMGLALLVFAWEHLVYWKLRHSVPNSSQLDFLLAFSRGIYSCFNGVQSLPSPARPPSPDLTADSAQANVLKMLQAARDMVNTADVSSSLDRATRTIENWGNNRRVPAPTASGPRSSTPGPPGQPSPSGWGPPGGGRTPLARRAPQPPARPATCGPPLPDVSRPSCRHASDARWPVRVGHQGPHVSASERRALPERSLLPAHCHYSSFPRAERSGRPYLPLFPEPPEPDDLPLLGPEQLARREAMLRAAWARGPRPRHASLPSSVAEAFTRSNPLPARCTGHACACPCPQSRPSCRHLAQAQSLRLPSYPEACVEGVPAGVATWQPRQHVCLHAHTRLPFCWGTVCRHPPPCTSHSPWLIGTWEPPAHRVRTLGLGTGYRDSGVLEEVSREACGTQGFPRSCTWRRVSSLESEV
Sequence of rat GluN1/GluN2C (Rattus norvegicus, UniProt P35439+Q00961) (Q00961 20-1237, other chains not shown): as above

GluN2C (max) (%) (rat GluN1/GluN2C [1])	GluN2D (max) (%) (rat GluN1/GluN2D [5])	EC50 (rat GluN1/GluN2C [6]; read-out: GluN2C EC50)	GluN2C Max % (rat GluN1/GluN2C [1])	GluN2D Max % (rat GluN1/GluN2D [5])	EC50 (rat GluN1/GluN2D [7]; read-out: GluN2D EC50)	Structure (SMILES)	other results
233%	215%					COc1ccc(OCC2c3cc(OC)c(OC)cc3CCN2C(=O)c2cccc(Cl)c2)cc1 (centres unmarked) [CIQ]	effect on fear and extinction learning in animal models [2]: facilitate the retention of fear and extinction learning; activity at GluN2A/B, AMPAR, or kainate receptors [3]: no activity; effect on schizophrenia-like symptoms in animal models [4]: attenuate schizophrenia-like symptoms; EC50 (GluN2C/D): 5 to 10 µM
						COc1ccc(OCC2c3cnn(C)c3CCN2C(=S)c2cccc(Cl)c2)cc1 (centres unmarked) [1180-413, (3-Chlorophenyl)(4-((4-methoxyphenoxy)methyl)-1-methyl-1,4,6,7-tetrahydro-5H-pyrazolo[4,3-c]pyridin-5-yl)methanethione]	GluN2C potentiation (NE class) (rat GluN1/GluN2C [1]): NE (NE indicates less than 20% potentiation at 30 μM); GluN2D potentiation (NE class) (rat GluN1/GluN2D [5]): NE (NE indicates less than 20% potentiation at 30 μM)
						COc1ccc(OCC2c3cnn(C)c3CCN2C(=O)c2cccc(Cl)c2)cc1 (centres unmarked) [1180-407, (3-Chlorophenyl)(4-((4-methoxyphenoxy)methyl)-1-methyl-1,4,6,7-tetrahydro-5H-pyrazolo[4,3-c]pyridin-5-yl)methanone]	GluN2C response at 100 μM (rat GluN1/GluN2C [1]; @ 100 μM): 207% @ 100 μM; GluN2D response at 100 μM (rat GluN1/GluN2D [5]; @ 100 μM): 216% @ 100 μM
276%	332%					COc1ccc(OC[C@H]2c3cccn3CC(=O)N2Cc2cccc(C(F)(F)F)c2)cc1 [R-(+)-1180-447]	
		7.4 µM	353%	527%	9.6 µM	COc1ccc(OCC2c3occc3CCN2C(=O)c2cccc(Cl)c2)cc1 (centres unmarked) [1180-403, (3-Chlorophenyl)(7-((4-methoxyphenoxy)methyl)-4,7-dihydrofuro[2,3-c]pyridin-6(5H)-yl)methanone]	
						COc1ccc(OCC2c3sc(C)nc3CCN2C(=O)c2cccc(Cl)c2)cc1 (centres unmarked) [1180-402, (3-Chlorophenyl)(4-((4-methoxyphenoxy)methyl)-2-methyl-6,7-dihydrothiazolo[5,4-c]pyridin-5(4H)-yl)methanone]	GluN2C potentiation (NE class) (rat GluN1/GluN2C [1]): NE (NE indicates less than 20% potentiation at 30 μM); GluN2D potentiation (NE class) (rat GluN1/GluN2D [5]): NE (NE indicates less than 20% potentiation at 30 μM)
						COc1ccc(OCC2c3ccsc3CCN2C(=S)c2cccc(Cl)c2)cc1 (centres unmarked) [1180-414, (3-Chlorophenyl)(4-((4-methoxyphenoxy)methyl)-6,7-dihydrothieno[3,2-c]pyridin-5(4H)-yl)methanethione]	GluN2C potentiation (NE class) (rat GluN1/GluN2C [1]): NE (NE indicates less than 20% potentiation at 30 μM); GluN2D potentiation (NE class) (rat GluN1/GluN2D [5]): NE (NE indicates less than 20% potentiation at 30 μM)
		3.6 µM	320%	369%	4.7 µM	COc1ccc(OCC2c3ccsc3CCN2C(=O)c2cccc(Cl)c2)cc1 (centres unmarked) [1180-401, (3-Chlorophenyl)(4-((4-methoxyphenoxy)methyl)-6,7-dihydrothieno[3,2-c]pyridin-5(4H)-yl)methanone]	
		11 µM	194%	238%	15 µM	COc1ccc(OCC2c3cnsc3CCN2C(=O)c2cccc(Cl)c2)cc1 (centres unmarked) [1180-411, (3-Chlorophenyl)(4-((4-methoxyphenoxy)methyl)-6,7-dihydroisothiazolo[4,5-c]pyridin-5(4H)-yl)methanone]	
		3.8 µM	288%	391%	3.5 µM	COc1ccc(OCC2c3sccc3CCN2C(=O)c2cccc(Cl)c2)cc1 (centres unmarked) [1180-400, (3-Chlorophenyl)(7-((4-methoxyphenoxy)methyl)-4,7-dihydrothieno[2,3-c]pyridin-6(5H)-yl)methanone]	
464%	542%					COc1ccc(OC[C@H]2c3cccn3CCN2C(=O)c2cccc(C(F)(F)F)c2)cc1 [R-(+)-1180-450]	

Structure (SMILES)	GluN2C (max) (%) (rat GluN1/GluN2C [1])	GluN2D (max) (%) (rat GluN1/GluN2D [5])	EC50 (rat GluN1/GluN2C [6]; read-out: GluN2C EC50)	GluN2C Max % (rat GluN1/GluN2C [1])	GluN2D Max % (rat GluN1/GluN2D [5])	EC50 (rat GluN1/GluN2D [7]; read-out: GluN2D EC50)	other results
COc1ccc(OCC2c3sccc3CCN2C(=O)c2ccc(Cl)s2)cc1 (centres unmarked) [1180-404, (5-Chlorothiophen-2-yl)(7-((4-methoxyphenoxy)methyl)-4,7-dihydrothieno[2,3-c]pyridin-6(5H)-yl)methanone]			5.1 µM	269%	352%	7.4 µM	
COc1ccc(OCC2c3cccn3CCN2C(=O)c2cccc(C(F)(F)F)c2)cc1 (racemic) [1180-450, (1-((4-methoxyphenoxy)methyl)-3,4-dihydropyrrolo[1,2-a]pyrazin-2(1H)-yl)(3-(trifluoromethyl)phenyl)methanone]	(381) %	(288) %					EC50 (rat GluN1/GluN2C [6]; read-out: GluN2C pEC50 [95% CI] (converted)): 1.58 µM; EC50 (rat GluN1/GluN2D [7]; read-out: GluN2D pEC50 [95% CI] (converted)): 2 µM; Solubility [8]: 58 µM (≈ 25 µg/mL)
COc1ccc(OCC2c3sccc3CCN2C(=O)/C=C/C(F)(F)F)cc1 (centres unmarked) [1180-405, (E)-4,4,4-trifluoro-1-(7-((4-methoxyphenoxy)methyl)-4,7-dihydrothieno[2,3-c]pyridin-6(5H)-yl)but-2-en-1-one]			13 µM	282%	317%	13 µM	
COc1ccc(OCC2c3cccn3CC(=O)N2Cc2cccc(F)c2)cc1 (centres unmarked) [1180-453, 2-(3-fluorobenzyl)-1-((4-methoxyphenoxy)methyl)-1,2-dihydropyrrolo[1,2-a]pyrazin-3(4H)-one]	(348) %	(334) %					Solubility [8]: 74 µM (≈ 28.2 µg/mL)
